Source: article PMC9578339, “Deracemisation and stereoinversion by a nanoconfined bidirectional enzyme cascade: dual control by electrochemistry and selective metal ion activation” (Chemical Communications (Cambridge, England), 2022)

Target: T1, LK (R-selective alcohol dehydrogenase) (Lentilactobacillus kefiri, UniProt Q6WVP7)
T1 construct: gene adh; homo-tetramer; Mg2+ dependent; co-entrapped with FNR in porous ITO electrode
T1 sequence (Q6WVP7 1-252): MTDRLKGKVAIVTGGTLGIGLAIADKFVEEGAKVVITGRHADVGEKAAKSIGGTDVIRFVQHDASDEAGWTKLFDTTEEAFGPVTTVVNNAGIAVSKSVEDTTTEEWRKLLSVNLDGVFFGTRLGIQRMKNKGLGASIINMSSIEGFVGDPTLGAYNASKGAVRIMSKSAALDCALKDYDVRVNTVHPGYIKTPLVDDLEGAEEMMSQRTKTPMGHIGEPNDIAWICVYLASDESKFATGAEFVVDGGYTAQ
Experiment: chronoamperometry on FNR/ITO electrode, chiral GC
Type: biochemical
Settings: pH 9.0, 50 mM TAPS, 25 °C, 5 mM Mg2+, 20 uM NADP+; enzyme entrapped with FNR and W110V in ITO electrode

Structure (SMILES): C[C@@H](O)CCc1ccccc1 [(R)-4-phenyl-2-butanol]
- chronoamperometry on FNR/ITO electrode, chiral GC: conversion of (R)-4-phenyl-2-butanol to 4-phenyl-2-butanone by LK
